Measured values from patent publication US11053213B2, “Pharmaceutical compounds” (ALMAC DISCOVERY LIMITED, priority 2016, dated 2021).

Target: USP19 (Homo sapiens (Human), UniProt O94966)
Assay: USP19 activity assay (fluorescence polarisation, Ubiquitin-Lys-TAMRA substrate)
Assay type: biochemical
Conditions: full-length USP19 2.5 nM, 30 min pre-incubation, Ub substrate 500 nM; average of at least two duplicate experiments

Chain of USP19 (O94966 whole entry): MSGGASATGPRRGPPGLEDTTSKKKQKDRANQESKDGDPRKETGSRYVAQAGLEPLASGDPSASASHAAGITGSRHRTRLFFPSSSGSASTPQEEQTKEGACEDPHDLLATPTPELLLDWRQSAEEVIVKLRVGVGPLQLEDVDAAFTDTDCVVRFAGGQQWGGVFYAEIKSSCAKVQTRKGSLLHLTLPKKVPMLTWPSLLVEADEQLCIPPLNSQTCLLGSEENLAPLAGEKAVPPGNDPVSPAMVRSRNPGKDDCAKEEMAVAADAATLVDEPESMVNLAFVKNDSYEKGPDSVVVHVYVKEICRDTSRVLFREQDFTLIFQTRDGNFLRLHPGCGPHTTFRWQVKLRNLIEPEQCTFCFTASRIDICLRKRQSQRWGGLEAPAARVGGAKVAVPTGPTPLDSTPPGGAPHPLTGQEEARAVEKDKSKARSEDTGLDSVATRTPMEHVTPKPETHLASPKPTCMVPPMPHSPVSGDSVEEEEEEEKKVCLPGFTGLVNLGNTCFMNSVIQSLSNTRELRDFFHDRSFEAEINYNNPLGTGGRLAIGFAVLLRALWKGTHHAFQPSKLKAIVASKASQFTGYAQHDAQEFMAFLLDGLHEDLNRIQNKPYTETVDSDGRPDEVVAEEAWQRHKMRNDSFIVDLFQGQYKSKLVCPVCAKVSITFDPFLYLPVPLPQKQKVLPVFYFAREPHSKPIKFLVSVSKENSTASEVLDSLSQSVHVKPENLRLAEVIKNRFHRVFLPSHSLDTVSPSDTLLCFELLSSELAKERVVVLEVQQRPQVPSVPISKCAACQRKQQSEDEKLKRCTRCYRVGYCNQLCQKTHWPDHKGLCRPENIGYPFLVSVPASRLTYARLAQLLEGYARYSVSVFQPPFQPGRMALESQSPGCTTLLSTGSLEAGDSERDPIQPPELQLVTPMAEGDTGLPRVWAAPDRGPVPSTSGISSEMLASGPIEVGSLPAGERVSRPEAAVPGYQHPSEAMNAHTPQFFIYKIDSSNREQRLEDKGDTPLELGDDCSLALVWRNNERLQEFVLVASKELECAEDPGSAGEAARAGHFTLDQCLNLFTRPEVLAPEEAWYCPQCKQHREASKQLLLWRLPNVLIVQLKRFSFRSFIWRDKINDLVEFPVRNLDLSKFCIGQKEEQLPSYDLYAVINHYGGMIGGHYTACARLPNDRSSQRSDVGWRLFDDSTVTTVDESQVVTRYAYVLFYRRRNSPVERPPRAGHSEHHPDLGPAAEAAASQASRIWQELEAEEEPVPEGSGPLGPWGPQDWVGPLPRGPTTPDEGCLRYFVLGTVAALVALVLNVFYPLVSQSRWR

IC50	Compound
5 to 50 µM	C[C@H](CC(=O)N1CCC(O)(Cn2cc(C(=O)NCCO)c(-c3ccccc3)cc2=O)CC1)c1ccccc1 [Example 115, (R)-1-((4-Hydroxy-1-(3-phenylbutanoyl)piperidin-4-yl)methyl)-N-(2-hydroxyethyl)-6-oxo-4-phenyl-1,6-dihydropyridine-3-carboxamide]
5 to 50 µM	CC1(C)CN(C(=O)CCc2ccccc2)CCC1(O)Cn1cnc(-c2ccccc2F)cc1=O (racemic) [Example 68, (R,S)-6-(2-Fluorophenyl)-3-((4-hydroxy-3,3-dimethyl-1-(3-phenylpropanoyl)piperidin-4-yl)methyl)pyrimidin-4(3H)-one]
50 to 250 µM	CN(C)C(=O)c1cn(CC2(O)CCN(C(=O)C34CCC(CC3)C4)CC23CCCC3)c(=O)cc1-c1ccccc1 (centres unmarked) [Example 179, 1-((7-(Bicyclo[2.2.1]heptane-1-carbonyl)-10-hydroxy-7-azaspiro[4.5]decan-10-yl)methyl)-N,N-dimethyl-6-oxo-4-phenyl-1,6-dihydropyridine-3-carboxamide]
5 to 50 µM	C[C@H](CC(=O)N1CCC(O)(Cn2nc(-c3ccccc3)c(-c3ccccc3)cc2=O)CC1)c1ccccc1 [Example 19, (R)-2-((4-Hydroxy-1-(3-phenylbutanoyl)piperidin-4-yl)methyl)-5,6-diphenylpyridazin-3(2H)-one]
< 0.5 µM	C[C@H](CC1CCCCC1)C(=O)N1CCC(O)(Cn2cc(C(=O)N(C)C)c(-c3ccccc3)cc2=O)C2(CCCCC2)C1 (stereo partly drawn) [Example 237, 1-((2-((R)-3-Cyclohexyl-2-methylpropanoyl)-5-hydroxy-2-azaspiro[5.5]undecan-5-yl)methyl)-N,N-dimethyl-6-oxo-4-phenyl-1,6-dihydropyridine-3-carboxamide]
5 to 50 µM	CN(C)C(=O)c1cn(CC2(O)CCN(C(=O)C3CC34CC4)CC23CCCC3)c(=O)cc1-c1ccccc1 (centres unmarked) [Example 195, 1-((10-Hydroxy-7-(spiro[2.2]pentane-1-carbonyl)-7-azaspiro[4.5]decan-10-yl)methyl)-N,N-dimethyl-6-oxo-4-phenyl-1,6-dihydropyridine-3-carboxamide]
< 0.5 µM	C[C@H](CC1CCCCC1)C(=O)N1CC[C@@](O)(Cn2cc(C(=O)N3CCNCC3)c(-c3ccccc3F)cc2=O)C2(CCCC2)C1 [Example 227, 1-(((S)-7-((R)-3-Cyclohexyl-2-methylpropanoyl)-10-hydroxy-7-azaspiro[4.5]decan-10-yl)methyl)-4-(2-fluorophenyl)-5-(piperazine-1-carbonyl)pyridin-2(1H)-one]
< 0.5 µM	C[C@H](CC1CCC1)C(=O)N1CC[C@@](O)(Cn2cc(C(=O)N3CCNCC3)c(-c3ccccc3F)cc2=O)C(C)(C)C1 [Example 236, 1-(((S)-1-((R)-3-Cyclobutyl-2-methylpropanoyl)-4-hydroxy-3,3-dimethylpiperidin-4-yl)methyl)-4-(2-fluorophenyl)-5-(piperazine-1-carbonyl)pyridin-2(1H)-one]
< 0.5 µM	C[C@H](CC1CCCCC1)C(=O)N1CCC(O)(Cn2cc(C(=O)N(C)C)c(N(C)C)cc2=O)C2(CCCC2)C1 (stereo partly drawn) [Example 145, 1-((7-((R)-3-Cyclohexyl-2-methylpropanoyl)-10-hydroxy-7-azaspiro[4.5]decan-10-yl)methyl)-4-(dimethylamino)-N,N-dimethyl-6-oxo-1,6-dihydropyridine-3-carboxamide]
50 to 250 µM	CC(CC(C)(C)C)C(=O)N1CCC(O)(Cn2cnc(-c3ccccc3F)cc2=O)C(C)(C)C1 (centres unmarked) [Example 142, 6-(2-Fluorophenyl)-3-((4-hydroxy-3,3-dimethyl-1-(2,4,4-trimethylpentanoyl)piperidin-4-yl)methyl)pyrimidin-4(3H)-one]
50 to 250 µM	CC(OC1CCCCC1)C(=O)N1CCC(O)(Cn2cnc(-c3ccccc3F)cc2=O)C(C)(C)C1 (centres unmarked) [Example 126, 3-((1-(2-(Cyclohexyloxy)propanoyl)-4-hydroxy-3,3-dimethylpiperidin-4-yl)methyl)-6-(2-fluorophenyl)pyrimidin-4(3H)-one]
< 0.5 µM	O=C(c1cn(C[C@]2(O)CCN(C(=O)[C@H](CO)CC(F)(F)F)CC23CCCC3)c(=O)cc1-c1ccccc1)N1CCNCC1 [Example 249, 1-(((S)-10-Hydroxy-7-((S)-4,4,4-trifluoro-2-(hydroxymethyl)butanoyl)-7-azaspiro[4.5]decan-10-yl)methyl)-4-phenyl-5-(piperazine-1-carbonyl)pyridin-2(1H)-one]
50 to 250 µM	C[C@H](CC(=O)N1CCC(O)(Cn2cnc(-c3ccccc3CO)cc2=O)CC1)c1ccccc1 [Example 74, (R)-3-((4-Hydroxy-1-(3-phenylbutanoyl)piperidin-4-yl)methyl)-6-(2-(hydroxymethyl)phenyl)pyrimidin-4(3H)-one]
0.5 to 5 µM	COc1ccccc1-c1cc(=O)n(CC2(O)CCN(C(=O)C[C@@H](C)c3ccccc3)CC2)cc1C(=O)N(C)C(C)C [Example 89, (R)-1-((4-Hydroxy-1-(3-phenylbutanoyl)piperidin-4-yl)methyl)-N-isopropyl-4-(2-methoxyphenyl)-N-methyl-6-oxo-1,6-dihydropyridine-3-carboxamide]
5 to 50 µM	CN(C)C(=O)c1cn(C[C@]2(O)CCN(C(=O)C(CC(F)(F)F)CC(F)(F)F)CC2(C)C)c(=O)cc1-c1ccccc1 [Example 207, (S)-1-((4-Hydroxy-3,3-dimethyl-1-(4,4,4-trifluoro-2-(2,2,2-trifluoroethyl)butanoyl)piperidin-4-yl)methyl)-N,N-dimethyl-6-oxo-4-phenyl-1,6-dihydropyridine-3-carboxamide]
0.5 to 5 µM	C[C@H](CC(=O)N1CCC(O)(Cn2cc(-c3cccc(C(N)=O)c3)c(-c3ccccc3)cc2=O)CC1)c1ccccc1 [Example 7, (R)-3-(1-((4-Hydroxy-1-(3-phenylbutanoyl)piperidin-4-yl)methyl)6-oxo-4-phenyl-1,6-dihydropyridin-3-yl)benzamide]
5 to 50 µM	CC(C)(CC(=O)N1CCC(O)(Cn2cnc(-c3ccccc3F)cc2=O)C(C)(C)C1)c1ccccc1 (racemic) [Example 70, (R,S)-6-(2-Fluorophenyl)-3-((4-hydroxy-3,3-dimethyl-1-(3-methyl-3-phenylbutanoyl)piperidin-4-yl)methyl)pyrimidin-4(3H)-one]
< 0.5 µM	CCOC(=O)c1cn(C[C@]2(O)CCN(C(=O)[C@H](C)CC3CCCCC3)CC23CCCC3)c(=O)cc1-c1ccccc1 [Example 252, Ethyl 1-(((S)-7-((R)-3-cyclohexyl-2-methylpropanoyl)-10-hydroxy-7-azaspiro[4.5]decan-10-yl)methyl)-6-oxo-4-phenyl-1,6-dihydropyridine-3-carboxylate]
< 0.5 µM	C[C@H](CC(F)(F)F)C(=O)N1CC[C@@](O)(Cn2cc(C(=O)N3CCOCC3)c(-c3ccccc3)cc2=O)C2(CCCC2)C1 [Example 250, 1-(((S)-10-Hydroxy-7-((R)-4,4,4-trifluoro-2-methylbutanoyl)-7-azaspiro[4.5]decan-10-yl)methyl)-5-(morpholine-4-carbonyl)-4-phenylpyridin-2(1H)-one]
< 0.5 µM	C[C@H](CC1CCCCC1)C(=O)N1CCC(O)(Cn2cc(C(=O)N(C)C)c(-c3cccc(CO)c3)cc2=O)C2(CCCC2)C1 (stereo partly drawn) [Example 156, 1-((7-((R)-3-Cyclohexyl-2-methylpropanoyl)-10-hydroxy-7-azaspiro[4.5]decan-10-yl)methyl)-4-(3-(hydroxymethyl)phenyl)-N,N-dimethyl-6-oxo-1,6-dihydropyridine-3-carboxamide]
